Eleven compounds from patent publication US5143923A, “Benzoisothiazole- and benziosoxazole-3-carboxamides” (Hoechst-Roussel Pharmaceuticals Inc., priority 1991, dated 1992) can be followed below.

Usually ED50 stands for the dose that gives a 50% effect, or the effect in half of the subjects. The term inhibition denotes the relative decrease from the control value, in per cent.

Assay [1] deals with apomorphine-induced climbing. The assay is described as follows: Inhibition of apomorphine-induced climbing, climbing mice assay (antipsychotic activity). It counts as in vivo, CK-1 male mice. The settings on record: for ED50: Mus musculus, ip, read-out: Antipsychotic Activity ED50. On the procedure: The subject CK-1 male mice (23-27 grams) are group-housed under standard laboratory conditions. The mice are individually placed in wire mesh stick cages (4"×4"10") and are allowed one hour for adaptation and exploration of the new environment.
For evaluation of climbing, 3 readings are taken at 10, 20 and 30 minutes after apomorphine administration according to the following scale: […]
Mice consistently climbing before the injection of apormorphine are discarded.
With full-developed apomorphine climbing, the animals are hanging onto the cage walls, rather motionless, over longer periods of time. By contrast, climbs due to mere motor stimulation usually only last a few seconds.
The climbing scores are individually totaled (maximal score; 6 per mouse over 3 readings) and the total score of the control group (vehicle intraperitioneally-apomorphine subcutaneously) is set to 100%.

In assay [2] the test system is apomorphine induced stereotypy. The assay is described as follows: Inhibition of apomorphine induced stereotypy assay (extrapyramidal side effect potential). It counts as in vivo, male Wistar rats. The protocol: Potential for undersible extrapyramidal side effect activity is determined in the inhibition of apormorphine stereotypy assay by methods similar to those described by N. E. Anden, et al., J. Pharma.
Drugs are prepared using distilled water and, if insoluble, a suitable surfactant is added. The route of administration may be varied and the dosage volume is 10 ml/kg. For a primary screen, a group size of six is used. Drug is administered one hour prior to scoring and the animals are placed in individual clear plastic cages (24×14×13 cm). The control group receives vehicle. Apomorphine hydrochloride solution is prepared at a concentration of 15 mg/10 ml in a 0.03% ascorbic acid stock solution (30 mg of ascorbic acid in 100 ml of 1% saline) to increase the stability of the apomorphine hydrochloride while in solution. […] Fifty minutes after drug dosing, stereotypic behavior is noted. Stereotypic activity is defined as sniffing, licking or chewing behavior that occurs in a repetitive manner and is rated as follows: Constant sniffing, licking or chewing without interruption; the animal is considered protected if this behavior is interrupted.
The percent effectiveness of a drug is determined by the number of animals protected in each group.
A dose-response is run in the same manner as a primary screen except that a group size of 10 is used and the animals are dosed in a randomized manner. One group receives vehicle. ED50 for stereotypy are calculated by means of probit analysis.

The mark [3] stands for this setting: Rattus norvegicus, read-out: % Inhibition of apomorphine induced stereotypy.
The mark [4] stands for this setting: mice, compound intraperitoneally 30 min before apomorphine 1.5 mg/kg s.c.

Structures can show the parent of a compound that is named as a salt. Where two headings read alike, the source gives them in different places.

`O=C(CCCN1CCC(O)(c2ccc(Cl)cc2)CC1)c1ccc(F)cc1` [Haloperidol, reference compound]: the ED50 in assay [1] came to 0.11 mg/kg. Moreover, the inhibition at 0.2 mg/kg in assay [2] (setting [3]) is 50%.
As to `CN(CCCCN1CCN(c2nsc3ccccc23)CC1)C(=O)c1nsc2ccccc12` [N-Methyl-N-[4-(1-(1,2-benzisothiazol-3-yl)-4-piperazinyl)butyl]-1,2-benzisothiazole-3-carboxamide hydrochloride], the inhibition at 40 mg/kg in assay [2] (setting [3]) is 100%.
Consider `COc1ccccc1N1CCN(CCCCN(C)C(=O)c2nsc3ccccc23)CC1` [N-Methyl-N-[4-(1-(2-methoxyphenyl)-4-piperazinyl)butyl]-1,2-benzisothiazole-3-carboxamide dihydrochloride hemihydrate], for which the “Antipsychotic Activity ED50” value is reported as 4.2 mg/kg in assay [1] (mice, compound intraperitoneally 30 min before apomorphine 1.5 mg/kg s.c., dihydrochloride hemihydrate) and 9.6 mg/kg in assay [1] (mice, compound intraperitoneally 30 min before apomorphine 1.5 mg/kg s.c., listed as N-methyl-N-[4-(1-(2-methoxyphenyl)-4-piperazinyl)butyl-1,2-benzisothiazole-3-car, dihydrochloride hemihydrate). The same compound registered an inhibition at 39.2 mg/kg in assay [2] (Rattus norvegicus, rats, dose 39.2 mg/kg body wt.) of 50%.
Turning to `CN(CCCCN1CCN(c2csc3cc(F)ccc23)CC1)C(=O)c1nsc2ccccc12.Cl` [N-Methyl-N-[4-(1-(6-fluorobenzo[b]thiophen-3-yl)-4-piperazinyl)butyl]-1,2-benzisothiazol-3-carboxamide hydrochloride], the ED50 in assay [1] stood at 4.5 mg/kg. The inhibition at 40 mg/kg in assay [2] (setting [3]) is 100%.
For the compound `CN(CCCCN1CCN(c2csc3cc(F)ccc23)CC1)C(=O)c1noc2ccccc12.Cl` [N-Methyl-N-[4-(1-(6-fluorobenzo[b]thiophen-3-yl)-4-piperazinyl)butyl]-1,2-benzisoxazole-3-carboxamide hydrochloride], the ED50 in assay [1] is 5 mg/kg. Besides, the inhibition at 52 mg/kg in assay [2] (setting [3]) came to 50%.
As for `COc1ccccc1N1CCN(CCNC(=O)c2nsc3ccccc23)CC1.Cl.Cl` [N-[2-(1-(2-Methoxyphenyl)-4-piperazinyl)ethyl]-1,2-benzisothiazole-3-carboxamide dihydrochloride], the ED50 in assay [1] turned out to be 6.3 mg/kg. In assay [2] (setting [3]), the inhibition at 51.8 mg/kg was determined as 50%.
As for `Cl.O=C(NCCN1CCN(c2csc3cc(F)ccc23)CC1)c1noc2ccccc12` [N-[2-(1-(6-fluorobenzo[b]thiophen-3-yl)-4-piperazinyl)ethyl]-1,2-benzisoxazole-3-carboxamide hydrochloride], in assay [1], the ED50 stood at 4.9 mg/kg. Moreover, the inhibition at 80 mg/kg in assay [2] (setting [3]) is 0%.
Regarding `Cl.O=C(NCCCCN1CCN(c2nsc3ccccc23)CC1)c1nsc2ccccc12` [N-[4-(1-(1,2-Benzisothiazol-3-yl)-4-piperazinyl)butyl]-1,2-benzisothiazole-3-carboxamide hydrochloride], the ED50 in assay [1] was determined as 8.3 mg/kg. The inhibition at 40 mg/kg in assay [2] (setting [3]) worked out at 17%.
On to `CCN1CCCC1CNC(=O)c1cc(S(N)(=O)=O)ccc1OC` (centres unmarked) [Sulpiride, reference compound], for which the median effective dose (ED50) in assay [1] (setting [4]) came to 4.5 mg/kg.
For `CSc1ccc2c(c1)N(CCC1CCCCN1C)c1ccccc1S2` (centres unmarked) [thioridazine, reference compound], the inhibition at 16 mg/kg in assay [2] (Rattus norvegicus, rats, dose 16 mg/kg body wt.) came to 50%.
Consider “N-[2-(1-(4-Fluorobenzoyl)-4-piperidinyl)ethyl]-1,2-benzisothiazole-3-carboxamide hydrochloride hemihydrate”, for which the “Antipsychotic Activity ED50” value in assay [1] (setting [4]) was 3.6 mg/kg. Also, the “% Inhibition of apomorphine induced stereotypy” value in assay [2] (rats, dose 20 mg/kg body wt.) is given as 67%.
